The values that follow come from PubChem BioAssay (NCI).

Where “and” joins values, the source holds several entries; their conditions need not be identical. Identical values can stand only once.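 Five concentrations, 48 hours, 96-well plates. At the GI50, growth is halved. Definition used: TGI = concentration required for complete inhibition of growth.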

Among the test systems are M19-MEL melanoma; KM20L2 colon; LOX IMVI melanoma; CCRF-CEM leukemia; SR leukemia; SW-620 colon; OVCAR-5 ovarian; SF-268 CNS; MDA-N; MDA-MB-435; 786-0 renal.
What all share (test): growth of human tumour cells (NCI), 48 h

For `CN(C)C(=O)OC1C(=O)N(C)c2ccc(Cl)cc2C2(c3ccccc3)N1C2(Cl)Cl` (stereo unspecified), the TGI with M19-MEL melanoma, in the assay with KM20L2 colon, with LOX IMVI melanoma, in the assay on CCRF-CEM leukemia, in the assay with SR leukemia and in the assay with SW-620 colon was more than 100 µM each time. For the same molecule, the TGI in the assay on OVCAR-5 ovarian and with SF-268 CNS was more than 100 µM in each case.

On to `O=C(NCCCCCCCCCCCCNC(=O)Nc1cccc2ccccc12)Nc1cccc2ccccc12`, for which the TGI with LOX IMVI melanoma was 34.2 µM; with CCRF-CEM leukemia, 33.4 µM; with SR leukemia, 31.7 µM; in the assay on MDA-N, 31.2 µM; in the assay on MDA-MB-435 it was 33.5 µM; in the assay with SW-620 colon, 33.1 µM. Moreover, the TGI in the assay with OVCAR-5 ovarian is 79.6 µM; in the assay with 786-0 renal, 32.2 µM; in the assay on SF-268 CNS, 31.3 µM.

Take `COc1cccc(CCN2CCN(CCCc3ccccc3)CC2)c1`: the TGI in the assay on LOX IMVI melanoma, with CCRF-CEM leukemia, with SR leukemia, in the assay on MDA-N, in the assay with MDA-MB-435 and in the assay on SW-620 colon was more than 100 µM throughout. The TGI in the assay with OVCAR-5 ovarian, in the assay on 786-0 renal and with SF-268 CNS was more than 100 µM each time.

With `CN(C)c1ccc(/C(F)=C(F)/C(F)=C(F)/C(F)=C(\F)c2ccc(Br)cc2)cc1`, the TGI in the assay with LOX IMVI melanoma was more than 100 µM; in the assay with CCRF-CEM leukemia, more than 78.8 µM; in the assay on SR leukemia, more than 100 µM; with MDA-N it was 7.54 µM; with MDA-MB-435 it was 10.7 µM; with SW-620 colon, more than 100 µM. Further, the TGI with OVCAR-5 ovarian is more than 100 µM; in the assay on 786-0 renal, 22.2 µM; in the assay on SF-268 CNS, more than 100 µM.

In the case of `CCN(CC)N1C(=O)[N+](CC)(CC)N=C1[O-]`, the TGI in the assay on LOX IMVI melanoma, with CCRF-CEM leukemia, in the assay on SR leukemia, in the assay with MDA-N, with MDA-MB-435 and with SW-620 colon was more than 100 µM each time. The TGI in the assay with OVCAR-5 ovarian, in the assay with 786-0 renal and with SF-268 CNS was more than 100 µM in each case.

On to `[Cl][Sn]([c]1ccccc1)([c]1ccccc1)[c]1ccccc1`, for which the GI50 in the assay with M19-MEL melanoma was 0.0306 µM and 0.0181 µM; in the assay on KM20L2 colon it was 0.034 µM and 0.0186 µM; with CCRF-CEM leukemia, 0.029 µM; in the assay on MDA-MB-435 it was 0.186 µM; in the assay with SW-620 colon it was 0.0303 µM and < 0.01 µM. Also, the TGI with M19-MEL melanoma was 0.0969 µM and 0.043 µM; with KM20L2 colon, 0.11 µM and 0.0454 µM; in the assay with CCRF-CEM leukemia it was 0.156 µM; in the assay with SR leukemia, 0.86 µM and 0.552 µM and 0.112 µM; in the assay with MDA-MB-435, 0.42 µM; with SW-620 colon, 0.104 µM and 0.0229 µM. Moreover, the TGI in the assay with OVCAR-5 ovarian is 0.456 µM and 0.266 µM and 0.0901 µM.

`COc1ccc2c3c1OC1C(=O)C=CC4(CC2)N(C)CCC314` (stereo unspecified): the TGI in the assay on LOX IMVI melanoma was more than 100 µM; in the assay with CCRF-CEM leukemia it was 51.5 µM; in the assay with SR leukemia, 33.7 µM; with MDA-N, more than 100 µM; with MDA-MB-435, 61.2 µM; with SW-620 colon, more than 100 µM. The TGI in the assay with OVCAR-5 ovarian turned out to be 92.4 µM; in the assay on 786-0 renal it was 63.7 µM; in the assay with SF-268 CNS, 91 µM.

In the case of `C/C=C/c1cc(=O)c([C@@H]2OC(=O)c3cc(OC)cc(OC)c32)co1`, the TGI with M19-MEL melanoma, in the assay with KM20L2 colon, in the assay with CCRF-CEM leukemia, in the assay with SR leukemia, in the assay on SW-620 colon and in the assay with SF-268 CNS was more than 100 µM throughout.

For the molecule `COc1cc2ccc(=O)oc2cc1O`, the TGI is 328 µM in the assay with M19-MEL melanoma; 614 µM in the assay on KM20L2 colon; more than 625 µM with LOX IMVI melanoma; 328 µM in the assay on CCRF-CEM leukemia; more than 625 µM with SW-620 colon; 514 µM in the assay on OVCAR-5 ovarian. This molecule had a TGI with SF-268 CNS of more than 585 µM.

As to `CCCC(=O)NC(Nc1ccc(S(=O)(=O)Nc2cc(C)on2)cc1)(C(=O)OCC)C(F)(F)F` (stereo unspecified), the TGI in the assay on LOX IMVI melanoma, with CCRF-CEM leukemia, with SR leukemia, in the assay on MDA-N, in the assay with MDA-MB-435 and in the assay on SW-620 colon was more than 100 µM in each case. Also, the TGI in the assay with OVCAR-5 ovarian, in the assay with 786-0 renal and with SF-268 CNS was more than 100 µM in each case.

Take `CC(=O)Oc1cc2c(cc1OC(C)=O)OCC(c1ccc(C)cc1)C2` (stereo unspecified): the TGI in the assay with M19-MEL melanoma turned out to be 23.5 µM; with KM20L2 colon it was 60.5 µM; in the assay on LOX IMVI melanoma, 37.7 µM; with CCRF-CEM leukemia it was 26.8 µM; with SW-620 colon, 47.3 µM; in the assay on OVCAR-5 ovarian it was 79 µM. Moreover, the TGI in the assay on SF-268 CNS came out at 34.2 µM.

With `C=C[C@@H](C)[C@H](NS(=O)(=O)c1ccc(C)cc1)C(=O)OCC`, the TGI with LOX IMVI melanoma was 34.7 µM; in the assay with CCRF-CEM leukemia, more than 100 µM; in the assay with SR leukemia, more than 100 µM; in the assay with MDA-N, 83.6 µM; in the assay with MDA-MB-435, 47.2 µM; in the assay with SW-620 colon, more than 100 µM. Further, the TGI in the assay with OVCAR-5 ovarian, in the assay with 786-0 renal and in the assay with SF-268 CNS was more than 100 µM in each case.

Regarding `COC(OC)[C@@H]1OC[C@H](n2cnc3c(N)ncnc32)[C@H]1O`, the TGI in the assay on LOX IMVI melanoma, in the assay with CCRF-CEM leukemia, in the assay on SR leukemia, in the assay with MDA-N, with MDA-MB-435 and in the assay on SW-620 colon was more than 100 µM in each case. Also, the TGI in the assay with OVCAR-5 ovarian, in the assay with 786-0 renal and in the assay with SF-268 CNS was more than 100 µM each time.

Take `NS(=O)(=O)c1ccc(/C=C/c2ccc(F)cc2)cc1`: the GI50 with LOX IMVI melanoma was 26.7 µM; with CCRF-CEM leukemia, 62 µM; in the assay with SR leukemia, 10.5 µM; in the assay with MDA-MB-435, 27 µM; in the assay with SF-268 CNS, 20.5 µM. The TGI in the assay on LOX IMVI melanoma, in the assay with CCRF-CEM leukemia, with SR leukemia, with MDA-N, with MDA-MB-435 and in the assay on SW-620 colon was more than 100 µM each time. Further, the TGI in the assay with OVCAR-5 ovarian was more than 100 µM; with 786-0 renal, 41.2 µM; in the assay on SF-268 CNS, more than 100 µM.
